Several values for one entry are separate records, joined by “and”; a condition that tells them apart may be missing. Identical values can stand only once. Toxic doses and inconclusive results are not listed. Cut-off read from the data, not from the text of the source: active = T/C of 150% or more; inactive = T/C below 125%.
System: L1210 leukemia ip in BDF1 mice, survival T/C
Test: NCI In Vivo Anticancer Drug Screen. Data for tumor model L1210 Leukemia (intraperitoneal) in B6D2F1 (BDF1) mice
Details: endpoint: mean survival time, higher = longer survival
Procedure, shortened: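 Transplantable tumor model; survival measured in treated vs vehicle control mice. Value = treated/control.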

[1] = dose: 100.0 mg/kg/injection, schedule: Q01DX001 (ip), vehicle: saline with Tween-80
[2] = dose: 100.0 mg/kg/injection, schedule: Q04DX002 (ip), vehicle: saline with Tween-80
[3] = dose: 100.0 mg/kg/injection, schedule: Q04DX003 (ip), vehicle: saline with Tween-80
[4] = dose: 200.0 mg/kg/injection, schedule: Q04DX002 (ip), vehicle: saline with Tween-80
[5] = dose: 200.0 mg/kg/injection, schedule: Q04DX003 (ip), vehicle: saline with Tween-80
[6] = dose: 400.0 mg/kg/injection, schedule: Q04DX002 (ip), vehicle: saline with Tween-80
[7] = dose: 400.0 mg/kg/injection, schedule: Q04DX003 (ip), vehicle: saline with Tween-80
[8] = dose: 100.0 mg/kg/injection, schedule: Q01DX009 (ip), vehicle: Klucel (hydroxypropylcellulose) (HPC)
[9] = dose: 200.0 mg/kg/injection, schedule: Q01DX009 (ip), vehicle: Klucel (hydroxypropylcellulose) (HPC)
[10] = dose: 100.0 mg/kg/injection, schedule: Q04DX003 (ip), vehicle: Klucel (hydroxypropylcellulose) (HPC)
[11] = dose: 200.0 mg/kg/injection, schedule: Q04DX003 (ip), vehicle: Klucel (hydroxypropylcellulose) (HPC)
[12] = dose: 400.0 mg/kg/injection, schedule: Q04DX003 (ip), vehicle: Klucel (hydroxypropylcellulose) (HPC)

Measured: T/C

O=C1CN(CCN2CC(=O)NC(=O)C2)CC(=O)N1
inactive: dose: 6.25 mg/kg/injection, schedule: Q03HX008 (ip), vehicle: steriod suspending solution 112 % of control | dose: 10.8 mg/kg/injection, schedule: Q01DX009 (ip), vehicle: steriod suspending solution 103 % of control | dose: 12.5 mg/kg/injection, schedule: Q01DX009 (oral), vehicle: steriod suspending solution 123 % of control | dose: 12.5 mg/kg/injection, schedule: Q01DX009 (sc), vehicle: steriod suspending solution 116 % of control | dose: 14.0 mg/kg/injection, schedule: Q01DX009 (ip), vehicle: steriod suspending solution 108 % of control | dose: 23.0 mg/kg/injection, schedule: Q01DX009 (ip), vehicle: steriod suspending solution 119 % of control | dose: 25.0 mg/kg/injection, schedule: Q01DX009 (oral), vehicle: steriod suspending solution 116 % of control | dose: 39.0 mg/kg/injection, schedule: Q01DX001 (ip), vehicle: steriod suspending solution 109 % of control | dose: 50.0 mg/kg/injection, schedule: Q01DX001 (ip), vehicle: steriod suspending solution 107 % of control | dose: 50.0 mg/kg/injection, schedule: Q01DX009 (oral), vehicle: steriod suspending solution 113 % of control | dose: 65.0 mg/kg/injection, schedule: Q01DX001 (ip), vehicle: steriod suspending solution 118 % of control | dose: 100.0 mg/kg/injection, schedule: Q01DX001 (ip), vehicle: steriod suspending solution 112 % of control | dose: 100.0 mg/kg/injection, schedule: Q01DX009 (oral), vehicle: steriod suspending solution 121 % of control | dose: 400.0 mg/kg/injection, schedule: Q01DX001 (ip), vehicle: steriod suspending solution 119 % of control
active: dose: 12.5 mg/kg/injection, schedule: Q01DX009 (ip), vehicle: steriod suspending solution 154 % of control | dose: 12.5 mg/kg/injection, schedule: Q03HX024 (ip), vehicle: steriod suspending solution 177 % of control | dose: 12.5 mg/kg/injection, schedule: Q03HX032 (ip), vehicle: other 156 % of control and 167 % of control | dose: 18.7 mg/kg/injection, schedule: Q03HX032 (ip), vehicle: other 214 % of control and 216 % of control | dose: 25.0 mg/kg/injection, schedule: Q01DX Z (ip), vehicle: steriod suspending solution 150 % of control | dose: 25.0 mg/kg/injection, schedule: Q03HX024 (ip), vehicle: steriod suspending solution 153 % of control | dose: 39.0 mg/kg/injection, schedule: Q01DX009 (ip), vehicle: steriod suspending solution 152 % of control | dose: 50.0 mg/kg/injection, schedule: Q01DX009 (ip), vehicle: steriod suspending solution 212 % of control | dose: 50.0 mg/kg/injection, schedule: Q01DX009 (sc), vehicle: steriod suspending solution 154 % of control | dose: 50.0 mg/kg/injection, schedule: Q01DX Z (ip), vehicle: steriod suspending solution 164 % of control | dose: 50.0 mg/kg/injection, schedule: Q03HX008 (ip), vehicle: steriod suspending solution 164 % of control | dose: 50.0 mg/kg/injection, schedule: Q03HX024 (ip), vehicle: steriod suspending solution 165 % of control | dose: 65.0 mg/kg/injection, schedule: Q01DX009 (ip), vehicle: steriod suspending solution 176 % of control | dose: 100.0 mg/kg/injection, schedule: Q04DX003 (ip), vehicle: steriod suspending solution 154 % of control | dose: 200.0 mg/kg/injection, schedule: Q01DX001 (ip), vehicle: steriod suspending solution 166 % of control | dose: 200.0 mg/kg/injection, schedule: Q04DX003 (ip), vehicle: steriod suspending solution 189 % of control | dose: 400.0 mg/kg/injection, schedule: Q04DX003 (ip), vehicle: steriod suspending solution 162 % of control

O=c1cc[nH]c2ccc(Cl)cc12
inactive: dose: 50.0 mg/kg/injection, schedule: Q01DX001 (ip), vehicle: saline 117 % of control | dose: 100.0 mg/kg/injection, schedule: Q01DX001 (ip), vehicle: saline 102 % of control

Cc1ccc(Cl)cc1NC(=O)Nc1ccccc1O
inactive: [1] 95 % of control | dose: 100.0 mg/kg/injection, schedule: Q01DX009 (ip), vehicle: saline with Tween-80 94 % of control and 97 % of control | [2] 94 % of control and 95 % of control | [3] 106 % of control | dose: 200.0 mg/kg/injection, schedule: Q01DX001 (ip), vehicle: saline with Tween-80 95 % of control | dose: 200.0 mg/kg/injection, schedule: Q01DX009 (ip), vehicle: saline with Tween-80 94 % of control and 92 % of control | [4] 94 % of control and 106 % of control | [5] 103 % of control | dose: 400.0 mg/kg/injection, schedule: Q01DX001 (ip), vehicle: saline with Tween-80 93 % of control | dose: 400.0 mg/kg/injection, schedule: Q01DX009 (ip), vehicle: saline with Tween-80 109 % of control and 115 % of control | [6] 93 % of control and 91 % of control | [7] 94 % of control

COc1ccc(C(CC(=O)c2ccccc2)Sc2ccccc2N)cc1OC (stereo not drawn)
inactive: dose: 50.0 mg/kg/injection, schedule: Q01DX009 (ip), vehicle: Klucel (hydroxypropylcellulose) (HPC) 97 % of control | dose: 100.0 mg/kg/injection, schedule: Q01DX005 (ip), vehicle: Klucel (hydroxypropylcellulose) (HPC) 101 % of control | [8] 94 % of control | [2] 98 % of control | dose: 200.0 mg/kg/injection, schedule: Q01DX005 (ip), vehicle: Klucel (hydroxypropylcellulose) (HPC) 108 % of control | [9] 94 % of control | [4] 106 % of control | [6] 113 % of control

O=[N+]([O-])c1ccc2nc(-c3ccccc3)nn2c1
inactive: dose: 100.0 mg/kg/injection, schedule: Q01DX001 (ip), vehicle: acetone 92 % of control | dose: 200.0 mg/kg/injection, schedule: Q01DX001 (ip), vehicle: acetone 87 % of control | dose: 400.0 mg/kg/injection, schedule: Q01DX001 (ip), vehicle: acetone 93 % of control

OCn1nnc2ccccc21
inactive: [2] 103 % of control | [4] 90 % of control | [6] 106 % of control

CCCCCCCNC(C)(C)C(SSSC(c1ccc(Cl)cc1)C(C)(C)NCCCCCCC)c1ccc(Cl)cc1 (stereo not drawn)
inactive: [10] 101 % of control | [11] 101 % of control | [12] 98 % of control

C1CC2OC2C1 (stereo not drawn)
inactive: dose: 100.0 mg/kg/injection, schedule: Q01DX009 (ip), vehicle: saline 104 % of control | [3] 97 % of control | dose: 200.0 mg/kg/injection, schedule: Q01DX009 (ip), vehicle: saline 108 % of control | [5] 100 % of control | dose: 400.0 mg/kg/injection, schedule: Q01DX009 (ip), vehicle: saline 105 % of control | [7] 90 % of control

Cc1cc(NC(=O)Nc2cccc(C3=NCCN3)c2)ccc1NC(=O)Nc1cccc(C2=NCCN2)c1
active: dose: 240.0 mg/kg/injection, schedule: Q01DX Z (ip), vehicle: saline 171 % of control | dose: 480.0 mg/kg/injection, schedule: Q01DX Z (ip), vehicle: saline 192 % of control
inactive: dose: 15.0 mg/kg/injection, schedule: Q01DX Z (ip), vehicle: saline 93 % of control | dose: 30.0 mg/kg/injection, schedule: Q01DX Z (ip), vehicle: saline 103 % of control | dose: 60.0 mg/kg/injection, schedule: Q01DX Z (ip), vehicle: saline 109 % of control

CC(=O)OCc1ccc[n+](CCc2c[nH]c3ccccc23)c1
inactive: [3] 95 % of control | [5] 90 % of control

CCCCCCCc1nc(N)c(C(N)=O)[nH]1
inactive: dose: 25.0 mg/kg/injection, schedule: Q04DX003 (ip), vehicle: saline with Tween-80 96 % of control | dose: 50.0 mg/kg/injection, schedule: Q04DX003 (ip), vehicle: saline with Tween-80 102 % of control | [1] 98 % of control | [3] 101 % of control

CCn1nnnc1N
inactive: dose: 100.0 mg/kg/injection, schedule: Q04DX003 (ip), vehicle: saline 91 % of control | dose: 200.0 mg/kg/injection, schedule: Q04DX003 (ip), vehicle: saline 94 % of control | dose: 400.0 mg/kg/injection, schedule: Q04DX003 (ip), vehicle: saline 102 % of control

NC(=O)N/N=C1\CCCC(OC(=O)c2ccccc2)CC1 (stereo not drawn)
inactive: [8] 97 % of control | [10] 97 % of control | [9] 97 % of control | [11] 102 % of control | dose: 400.0 mg/kg/injection, schedule: Q01DX009 (ip), vehicle: Klucel (hydroxypropylcellulose) (HPC) 94 % of control | [12] 96 % of control

Source: PubChem BioAssay AID248 (DTP/NCI, 2004)
